From US6867236B1, “Method of preventing of delaying the onset and progression of Alzheimer's disease and related disorders” (Duke University, priority 1994, dated 2005)

Tested on: Alzheimer's disease
Assay: Case-control study of sibships at high risk: odds ratios for age-adjusted risk of Alzheimer's disease with prior drug exposure (Cox proportional hazards models)
Assay type: in vivo, human
Details: for effect on risk of Alzheimer's disease in words: drug alone, orthogonal comparison with NSAIDs; for Odds ratio for risk of Alzheimer's disease: COL + AU, simple odds ratio
Method: Briefly, doubly affected sib pairs with Alzheimer's disease onset ages that differed by at least 3 years were studied, as were disease-discordant siblings whose unaffected sib(s) had survived at least 3 years beyond the onset age of the affected sib. Premorbid exposures to steroids, NSAIDs and other treatments were assessed for 186 subjects (91% response rate) by focused retrospective interviews using appropriate blinding and multiple informants when possible. Survival analysis methods were used to compare age-adjusted risk of Alzheimer's disease among sibs who had been exposed or unexposed, before onset, to glucocorticoids, aspirin, non-aspirin NSAIDs, and histamine H2 receptor blockers. […] The odds ratios for steroids, aspirin and non-aspirin NSAIDs fell within the related confidence interval from the prior twin study (Breitner, Neurology 44:227 (1994)).
Doubly affected sib pairs with Alzheimer's disease onset ages that differed by at least 3 years were studied, as were disease-discordant siblings whose unaffected sib(s) had survived at least 3 years beyond the onset age of the affected sib. Diagnoses and ages at onset of Alzheimer's disease were established by consideration of all relevant data, including extensive longitudinal observation, laboratory testing, and autopsy confirmation when available. Arthritis, peptic ulcer disease, and other non-neurological conditions were not considered when making these diagnoses. Subjects or their collateral informants received a letter, followed by a structured telephone interview, that investigated several common medical conditions (arthritis, diabetes, peptic ulcer disease) and treatments (glucocorticoids, nonsteroidal anti-inflammatories, including aspirin, acetaminophen, narcotic analgesics, insulin and oral hypoglycemic drugs, and histamine H2 blocking agents). The interview also sought timing and duration of exposure. The interviewers generally knew which subjects had Alzheimer's disease but were blinded to early- or late-affected status. The respondents were not made aware of the hypothesis under investigation. Collateral informants supplied data for the 107 subjects who had developed Alzheimer's disease. Collateral information was also sought for the remaining subjects; however, it is was necessary to rely on autobiographical data from 20 (26%).
Like dizygous twins, siblings share 50% of their genetic make-up on average. The relation of Alzheimer's disease onset and prior use of anti-inflammatory drugs was therefore studied in a sample of 186 sibs from 45 pedigrees ascertained for genetic linkage studies of late onset Alzheimer's disease (Pericak-Vance et al, Am. J. Hum. Genet. 48:1034 (1991)). The selected sibs were members of onset-discordant doubly affected pairs or disease-discordant pairs meeting criteria described above.
These differences and the association of Alzheimer's disease with the remaining exposures were investigated using Cox proportional hazards models (Cox, J. Roy. Stat. Soc. (Series B) 34:248-275 (1972)) in which the sample was first stratified by sibship. Table 2 reports odds ratios (o.r), the customary measure of risk associated with an exposure in case-control work. The o.r. is ordinarily calculated as the ratio of proportions exposed versus unexposed in the affected and unaffected groups; for conditions like Alzheimer's disease with age-dependent expression (Breitner et al, Am. J. Epidemiol. 128:536-548 (1988)), the o.r. is preferably calculated using proportional hazards or similar models which consider subjects' current age or age at death (i.e., censoring age), or age at onset of Alzheimer's disease. An o.r. of less than 1 implies reduced risk of disease with exposure. […] The apparent effect of both aspirin and NSAIDs increased with duration of exposure; the o.r. with use of NSAIDs for >1 yr. […]

[1] = Table 2, source of data COL + AU (collateral + autobiographical), stratified by sibship
[2] = Table 2, source of data COL only (collateral informants), stratified by sibship, exposure >=1 month
[3] = Table 3, orthogonal comparison, not stratified by sibship, no NSAIDs

Structure (SMILES) | Odds ratio for age-adjusted risk of Alzheimer's disease [1] | Odds ratio for age-adjusted risk of Alzheimer's disease [2] | Odds ratio for age-adjusted risk of Alzheimer's disease [3] | effect on risk of Alzheimer's disease in words | Odds ratio for risk of Alzheimer's disease (Table 2, exposed 1-12 mo.) | Odds ratio for risk of Alzheimer's disease (Table 2, exposed >1 yr.) | estimated odds ratios (o.r.), age-adjusted risk of Alzheimer's disease (sibs exposed or unexposed before onset)
CC(=O)Nc1ccc(O)cc1 [Acetaminophen] | 0.104 | 0.157 | 0.192 | comparable but statistically inconclusive effect |  |  | 
CC(=O)Oc1ccccc1C(=O)O [Aspirin] | 0.343 | 0.349 | 0.508 | weak but similar effect to NSAIDs | 0.625 | 0.369 | 0.35
